According to patent US20230127944A1, “BROAD-SPECTRUM CARBAPENEMS” (priority 2019, published 2023):
In brackets after ≈: the same amount, converted by molar mass.

Tests used:
Type in all cases: cell-based
[1] = test system: P. aeruginosa Paeβ-17; assay: broth microdilution MIC assay, P. aeruginosa Paeβ-17; details: Pseudomonas aeruginosa, read-out: MIC, P. aeruginosa Paeβ-17
Protocol: (§1) To determine the ability of test compounds to inhibit the growth of bacterial strains, classic cell-based broth microdilution MIC assays were employed. MIC assays are performed according to CLSI methods except where otherwise noted (CLSI, 2011 and CLSI, 2009). The reference strains S. aureus ATCC 29213 (methicillin sensitive), S. aureus ATCC 33591 (methicillin-resistant), E. coli ATCC 25922 (wild-type/QC strain), P. aeruginosa ATCC 27853 (wild-type/QC strain), and the clinical isolate P. aeruginosa PA 8 were used to determine the ability of the exemplary carbapenem compounds to inhibit bacterial growth. An expanded panel of methicillin resistance S. aureus (MRSA) and Pseudomonas was also used to determine the ability of exemplary carbapenem compounds to inhibit bacterial growth across a broader representation of those species. To determine activity in MRSA and in addition to S. aureus ATCC 33591, S. aureus USA 300 and USA 600, some of the most common clones found to cause human infection, were also used. To further gauge the impact on the carbapenem compounds due to various resistance mechanisms in Pseudomonas, the following strains were included: P. aeruginosa 35151 (hyper-permeable strain), P. aeruginosa ΔmexAB-OprM (an efflux pump knockout), and P. aeruginosa Paβ-173 (a clinical isolate of reduced carbapenem susceptibility). Briefly, cryo-preserved bacterial cultures of clinical strains are streaked for isolation on appropriate agar medium, in this case Mueller Hinton II agar. Following incubation to allow formation of colonies, these plates are sealed with parafilm and stored refrigerated for up to two weeks. For preparation of assay inocula and to ensure low variability, at least 5 colonies are picked from the agar plates with an inoculating loop and aseptically transferred to a culture tube containing 3 mL of Mueller-Hinton Broth (supplemented with divalent cations to required levels based on Manufacturers' specification). The broth culture is grown for 3-5 hours at 37° C. with shaking at 200 rpm. Meanwhile, 2-fold serial dilutions of test compounds are conducted in a 96 well plate with a final volume of 75 μL per well at 2-fold the final desired concentration. After the dilution plates are set up the growing cultures are then diluted in a cuvette containing MH II broth and the optical density is measured at 600 nm. Inocula are diluted such that 75 μL of this culture in Mueller-Hinton Broth results in a starting bacterial concentration of 5×10^5 CFU/mL when added to the dilution plates. The plates are incubated 16-20 hours at 37° C. The MIC is read visually as the lowest concentration well with no bacterial growth.

[2] = test system: S. aureus USA 300; assay: broth microdilution MIC assay, S. aureus USA300; details: Staphylococcus aureus; S. aureus USA300 (MRSA); read-out: MIC, S. aureus USA300
Protocol: as §1

[3] = test system: S. aureus ATCC 33591 (methicillin-resistant); assay: broth microdilution MIC assay, S. aureus 33591; details: Staphylococcus aureus, ATCC33591; S. aureus 33591, methicillin-resistant; read-out: MIC, S. aureus 33591
Protocol: as §1

[4] = test system: S. aureus USA 600; assay: broth microdilution MIC assay, S. aureus USA600; details: Staphylococcus aureus; S. aureus USA600 (MRSA); read-out: MIC, S. aureus USA600
Protocol: as §1

[5] = test system: P. aeruginosa 35151 (hyper-permeable strain); assay: broth microdilution MIC assay, P. aeruginosa 35151; details: Pseudomonas aeruginosa, read-out: MIC, P. aeruginosa 35151
Protocol: as §1

[6] = test system: P. aeruginosa ATCC 27853 (wild-type/QC strain); assay: broth microdilution MIC assay, P. aeruginosa 27853; details: Pseudomonas aeruginosa, ATCC27853; read-out: MIC, P. aeruginosa 27853
Protocol: as §1

[7] = test system: E. coli ATCC 25922 (wild-type/QC strain); assay: broth microdilution MIC assay, E. coli 25922; details: Escherichia coli, ATCC25922; read-out: MIC, E. coli 25922
Protocol: as §1

[8] = test system: P. aeruginosa ΔmexAB-OprM (an efflux pump knockout); assay: broth microdilution MIC assay, P. aeruginosa ΔmexAB-OprM; details: Pseudomonas aeruginosa, read-out: MIC, P. aeruginosa ΔmexAB-OprM
Protocol: as §1

Compound | MIC [1] [µg/mL] | MIC [2] [µg/mL] | MIC [3] [µg/mL] | MIC [4] [µg/mL] | MIC [5] [µg/mL] | MIC [6] [µg/mL] | MIC [7] [µg/mL] | MIC [8] [µg/mL]
C[C@@H](O)[C@H]1C(=O)N2C(C(=O)O)=C(SC3CN([C@H]4CC[C@@H](N)C4)C3)[C@H](C)[C@H]12 [Example 7, (4R,5S,6S)-3-((1-((1S,3R)-3-aminocyclopentyl)azetidin-3-yl)thio)-6-((R)-1-hydroxyethyl)-4-methyl-7-oxo-1-azabicyclo[3.2.0]hept-2-ene-2-carboxylic acid] | 8 to 32 (≈ 21 to 83.9 µM) | 1 to 4 (≈ 2.62 to 10.5 µM) | 8 to 32 (≈ 21 to 83.9 µM) | 1 to 4 (≈ 2.62 to 10.5 µM) | < 1 | 8 to 32 (≈ 21 to 83.9 µM) | < 1 | 1 to 4 (≈ 2.62 to 10.5 µM)
C[C@@H](O)[C@H]1C(=O)N2C(C(=O)O)=C(SC3CN([C@@H]4CC[C@@H](N)C4)C3)[C@H](C)[C@H]12 [Example 8, (4R,5S,6S)-3-((1-((1R,3R)-3-aminocyclopentyl)azetidin-3-yl)thio)-6-((R)-1-hydroxyethyl)-4-methyl-7-oxo-1-azabicyclo[3.2.0]hept-2-ene-2-carboxylic acid] | 8 to 32 (≈ 21 to 83.9 µM) | 1 to 4 (≈ 2.62 to 10.5 µM) | 1 to 4 (≈ 2.62 to 10.5 µM) | 1 to 4 (≈ 2.62 to 10.5 µM) | < 1 | 1 to 4 (≈ 2.62 to 10.5 µM) | < 1 | 1 to 4 (≈ 2.62 to 10.5 µM)
C[C@@H](O)[C@H]1C(=O)N2C(C(=O)O)=C(SC3CN([C@H]4CC[C@@H](NC(=N)N)C4)C3)[C@H](C)[C@H]12 [Example 9, (4R,5S,6S)-3-((1-((1S,3R)-3-guanidinocyclopentyl)azetidin-3-yl)thio)-6-((R)-1-hydroxyethyl)-4-methyl-7-oxo-1-azabicyclo[3.2.0]hept-2-ene-2-carboxylic acid] | 8 to 32 (≈ 18.9 to 75.6 µM) | < 1 | 1 to 4 (≈ 2.36 to 9.44 µM) | < 1 | < 1 | 1 to 4 (≈ 2.36 to 9.44 µM) | < 1 | < 1
C[C@@H](O)[C@H]1C(=O)N2C(C(=O)O)=C(SC3CN([C@@H]4CC[C@@H](NC(=N)N)C4)C3)[C@H](C)[C@H]12 [Example 10, (4R,5S,6S)-3-((1-((1R,3R)-3-guanidinocyclopentyl)azetidin-3-yl)thio)-6-((R)-1-hydroxyethyl)-4-methyl-7-oxo-1-azabicyclo[3.2.0]hept-2-ene-2-carboxylic acid] | 8 to 32 (≈ 18.9 to 75.6 µM) | 1 to 4 (≈ 2.36 to 9.44 µM) | 1 to 4 (≈ 2.36 to 9.44 µM) | 1 to 4 (≈ 2.36 to 9.44 µM) | < 1 | 8 to 32 (≈ 18.9 to 75.6 µM) | < 1 | 1 to 4 (≈ 2.36 to 9.44 µM)
C[C@@H](O)[C@H]1C(=O)N2C(C(=O)O)=C(SC3CN([C@H]4CC[C@H](NC(=N)N)C4)C3)[C@H](C)[C@H]12 [Example 11, (4R,5S,6S)-3-((1-((1S,3S)-3-guanidinocyclopentyl)azetidin-3-yl)thio)-6-((R)-1-hydroxyethyl)-4-methyl-7-oxo-1-azabicyclo[3.2.0]hept-2-ene-2-carboxylic acid] | 8 to 32 (≈ 18.9 to 75.6 µM) | 1 to 4 (≈ 2.36 to 9.44 µM) | 1 to 4 (≈ 2.36 to 9.44 µM) | < 1 | < 1 | 1 to 4 (≈ 2.36 to 9.44 µM) | < 1 | 1 to 4 (≈ 2.36 to 9.44 µM)
C[C@@H](O)[C@H]1C(=O)N2C(C(=O)O)=C(SC3CN([C@@H]4CC[C@H](NC(=N)N)C4)C3)[C@H](C)[C@H]12 [Example 12, (4R,5S,6S)-3-((1-((1R,3S)-3-guanidinocyclopentyl)azetidin-3-yl)thio)-6-((R)-1-hydroxyethyl)-4-methyl-7-oxo-1-azabicyclo[3.2.0]hept-2-ene-2-carboxylic acid] | 8 to 32 (≈ 18.9 to 75.6 µM) | 1 to 4 (≈ 2.36 to 9.44 µM) | 1 to 4 (≈ 2.36 to 9.44 µM) | 1 to 4 (≈ 2.36 to 9.44 µM) | < 1 | 1 to 4 (≈ 2.36 to 9.44 µM) | < 1 | 1 to 4 (≈ 2.36 to 9.44 µM)
C[C@@H](O)[C@H]1C(=O)N2C(C(=O)O)=C(SC3CN([C@H]4CCC[C@H](N)C4)C3)[C@H](C)[C@H]12 [Example 13, (4R,5S,6S)-3-((1-((1S,3S)-3-aminocyclohexyl)azetidin-3-yl)thio)-6-((R)-1-hydroxyethyl)-4-methyl-7-oxo-1-azabicyclo[3.2.0]hept-2-ene-2-carboxylic acid] | 8 to 32 (≈ 20.2 to 80.9 µM) | 1 to 4 (≈ 2.53 to 10.1 µM) | 8 to 32 (≈ 20.2 to 80.9 µM) | 1 to 4 (≈ 2.53 to 10.1 µM) | < 1 | 8 to 32 (≈ 20.2 to 80.9 µM) | < 1 | 1 to 4 (≈ 2.53 to 10.1 µM)
